Measured values as given in patent publication US7964534B2, “Nuclear magnetic resonance assembly of chemical entities using advanced antenna probes” (Triad Liquidating Company, LLC, priority 2003, dated 2011).
One block for each molecule: values may come before it.

Key:
p38α MAP kinase = p38α MAP kinase (Homo sapiens, UniProt Q16539); experiment: phosphorylation of myelin basic protein (MBP) by p38α; type: biochemical
Experimental: The TTM2001.101.A09 bi-ligand compound and the fragments from which it was constructed were tested as inhibitors of p38α enzymatic activity in an assay measuring phosphorylation of myelin basic protein (MBP) by p38α.

p38α [1] = biological target: T1, p38α (Homo sapiens, UniProt Q16539); experiment: line broadening in 1D 1H NMR spectra; type: binding; design: dose or concentration left out as unconfirmed; details: 50 micromolar compound
Experimental: The ability of TTM2001.101.A09 to bind to p38α was determined by comparing the degree of line broadening in 1D ^1H NMR spectra for the compound in the presence of p38α compared to in the absence of p38α. […] (FIG. 4b) compared to the spectrum obtained for 50 micromolar of TTM2001.101.A09 in the absence of p38α (FIG. 4a), indicative of tight binding between p38α and TTM2001.101.A09.

p38α [2] = biological target: T1, p38α; experiment: WaterLOGSY competition experiments; type: binding
Excerpt: A peptide having the sequence […] (SEQ ID NO:1) is a known phosphorylation substrate for p38 as described, for example, in Chen et al. Biochemistry 39:2079-2087 (2000). […] This site is shown in the lower panel of FIG. 7, and is referred to as the SL (specificity ligand) site, since extending a bi-ligand library into this site off of an ATP mimic might provide additional specificity.

[3] = biological target: unactivated p38α MAP kinase (Homo sapiens, UniProt Q16539); experiment: WaterLOGSY screen of PBBA structure analogs; type: binding; details: 10 to 30 micromolar p38α, 0.1 to 1.0 millimolar compound, 4° C.
Excerpt: A library of 29 PBBA structure analogs was screened against unlabeled p38α MAP kinase (p38α) as follows. Samples containing 10 to 30 micromolar concentration of unactivated p38α MAP kinase and 0.1 to 1.0 millimolar concentration of one of the PBBA structure analogs were obtained. The samples were screened using WaterLOGSY with saturations times of 2 s (frequency selective excitation via a train of 232 6 ms it pulses with a GAUSS profile at an 80 Hz RF field strength) with […] using WATERGATE at 4° C. WaterLOGSY is further described in Dalvit et al. J. Biomol. NMR 21:349-59 (2001) Dalvit et al. J. Magn. Res. B112:282-288 (1996) and Dalvit et al., J. Biomol. NMR 11:437-444 (1998).

ATP site of p38α = ATP site of p38α (Homo sapiens, UniProt Q16539); experiment: fluorescence polarization displacement of fluorescently tagged staurosporine; type: binding
ATP site of p38α, sequence (Q16539 whole entry): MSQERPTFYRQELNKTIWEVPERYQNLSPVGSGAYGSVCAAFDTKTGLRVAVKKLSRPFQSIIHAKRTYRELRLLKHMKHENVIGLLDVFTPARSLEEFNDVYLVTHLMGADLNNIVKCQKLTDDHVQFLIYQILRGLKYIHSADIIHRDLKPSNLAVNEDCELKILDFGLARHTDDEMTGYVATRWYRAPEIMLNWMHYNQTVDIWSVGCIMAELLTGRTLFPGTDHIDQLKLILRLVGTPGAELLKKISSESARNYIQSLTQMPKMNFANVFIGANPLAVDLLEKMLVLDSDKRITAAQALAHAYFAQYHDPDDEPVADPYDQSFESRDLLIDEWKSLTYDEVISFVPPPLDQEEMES

p38α MAP kinase, sequence (Q16539 whole entry, the tested form may be a part): as the sequence (Q16539 whole entry) above
T1 sequence (Q16539 whole entry): as above
unactivated p38α MAP kinase, sequence (Q16539 whole entry): as above

tighter than either of the starting fragments (p38α MAP kinase; IC50 compared with starting fragments PBBA and TTM2001.082.B09): greater than 100 fold | Kd (p38α MAP kinase; correction of the IC50 for high ATP concentration, read-out: Kd for binding between p38α and compound): ~300 nM | IC50 (p38α MAP kinase; inhibition of MBP phosphorylation by p38α): 1700 nM | line broadening in presence of p38α (binding) (p38α [1]): significant line-broadening
Molecule: O=C(O)c1ccc(CCCCCCSCc2cc(-n3cnc4cc(C(=O)O)ccc43)ccc2F)cc1 [TTM2001.101.A09]

displacement of PBBA from p38α (p38α [2]): could not displace PBBA from p38α
Molecule: IPTTPITTTYFFFKKK [peptide, known phosphorylation substrate for p38]

Molecule: CCCCc1ccc(C(=O)O)cc1 [PBBA, p-butyl benzoic acid]
inhibition of phosphorylation of MBP protein by p38α (p38α MAP kinase): inhibit phosphorylation of MBP protein by p38α | cross-saturation effects with p38α (binding) [3]: showed cross-saturation effects with p38α indicating binding to the protein | displacement of fluorescently tagged staurosporine (ATP site of p38α): not able to displace a fluorescently tagged staurosporine
